{
  "source": "patent US20200054651A1",
  "about": "“COMPOSITIONS AND METHODS FOR MODULATING PPP2R1A” (The Regents of the University of California, priority 2017, published 2020)",
  "key": {"[1]": {"system": "231MFP breast cancer cells", "assay": "Metabolomic profiling (SRM-based LC-MS/MS) in 231MFP cells", "assay_type": "cell-based", "conditions": "5 h", "description": "For polar metabolites, cell pellets were extracted in a mixture of acetonitrile/methanol/water (40:40:20), with inclusion of D3-15N-serine (10 nM) as an internal standard. Insoluble debris was separated via centrifugation at 13,000 rpm for 10 minutes. For nonpolar metabolites, metabolomes were extracted in 2:1 chloroform:methanol (3 ml) and PBS (1 ml) with inclusion of dodecylglycerol (10 nmol) and pentadecanoic acid (10 nmol) as internal standards. Organic and aqueous layers were separated by centrifugation at 1000×g for 5 minutes; the organic layer was collected, dried under a stream of nitrogen, and then dissolved in chloroform (120 μl). An aliquot of the nonpolar or polar extracts were then injected into an Agilent 6460 or 6430 QQQ-LC/MS/MS system. Separation of polar metabolites was achieved using normal-phase chromatography with a Luna NH2 column (5 mm) using a mobile phase (Buffer A: acetonitrile; Buffer B, 95:5 water/acetonitrile; with a modifier of 0.1% formic acid or 0.2% ammonium hydroxide) along with ammonium acetate (50 mM) for positive and negative ionization mode, respectively. The following gradient was used for each run: 0% B for 5 minutes (flow rate: 0.2 mL/min), 0% B to 100% B (linear) over 15 min (flow rate: 0.7 mL/min), then followed by an isocratic gradient of 100% B for 5 minutes (flow rate: 0.7 mL/min) and then 0% B for 5 minutes (flow rate of 0.7 mL/min). For nonpolar metabolites, metabolomes were separated using reverse-phase chromatography with a Luna C5 column (50 mm×4.6 mm with 5 μm diameter particles). Mobile phase A consisted of 95:5 ratio of water/methanol and mobile phase B consisted of 2-propanol, methanol, and water in a 60:35:5 ratio. Solvent modifiers of 0.1% formic acid, 5 mM ammonium formate, and 0.1% ammonium hydroxide were used to assist ion formation as well as to improve the LC resolution in both positive and negative ionization modes, respectively. The flow rate for each run started at 0.1 ml/min for 5 minutes to alleviate backpressure associated with injecting chloroform. The gradient started at 0% B and increased linearly to 100% B over the course of 45 min with a flow rate of 0.4 ml/min, followed by an isocratic gradient of 100% B for 17 minutes at 0.5 ml/min before equilibrating for 8 minutes at 0% B with a flow rate of 0.5 ml/min.\nMS analysis was performed with an electrospray ionization (ESI) source on an Agilent 6430 or 6460 QQQ LC-MS/MS system. The capillary voltage was set to 3.0 kV, and the fragmentor voltage was set to 100 V. The drying gas temperature was 350° C., the drying gas flow rate was 10 L/min, and the nebulizer pressure was 35 psi. […] Metabolite levels are expressed as relative abundances as compared to controls."}, "[2]": {"biological_target": "T1, PP2A complex with wild-type PPP2R1A, PPP2R2A and PPP2CA (Homo sapiens, UniProt P30153)", "T1 construct": "PPP2CA protein TP301334) TP301334; host or cells: HEK293T", "assay": "In vitro PP2A activity assay (phosphate release from phosphopeptide)", "assay_type": "biochemical", "conditions": "30 min prior to assay", "description": "Wild-type mammalian expression plasmids with C-terminal FLAG tag were purchased from Origene (PPP2R1A: RC200056; PPP2R2A, MR207137). The PPP2R1A C337A mutant was generated with Agilent QuickChange Lightning site-directed mutagenesis kit according to manufacturer's instructions. […] Immediately prior to transfection, media was replaced with DMEM+5% FBS. Each plate was transfected with 20 μg of overexpression plasmid with 100 μg PEI (Sigma). After 48 hrs cells were collected in TBS, lysed by sonication, and batch bound with anti-DYKDDDDK (SEQ ID NO: 1) resin (GenScript) for 1 hr. Lysate and resin was loaded onto a gravity flow column and washed, followed by elution with 250 ng/uL 3×FLAG peptide (ApexBio A6001). Purity and concentration were verified by PAGE, UV/Spectroscopy, and BCA assay.\nActivity was assayed by addition of 60 μM Thr phosphopeptide (KRpTIRR, Millipore, 12-219) at 37° C. for 25 min, and free phosphate was detected colorimetrically by malachite green kit (Cayman 10009325) per manufacturer's instructions."}, "[3]": {"assay": "In vivo tolerability during xenograft treatment", "conditions": "daily treatment for >30 days, 50 mg/kg ip"}, "MCF7 cells [4]": {"system": "MCF7 cells", "assay": "MCF7 cell proliferation", "assay_type": "cell-based", "conditions": "10 μM, 48 h"}, "MCF7 cells [5]": {"system": "MCF7 cells", "assay": "MCF7 serum-free cell survival", "assay_type": "cell-based", "conditions": "10 μM, 48 h"}, "HCC38 cells": {"system": "HCC38 cells", "assay": "HCC38 cell proliferation", "assay_type": "cell-based", "conditions": "10 μM, 48 h"}},
  "data": [
    {"smiles": "O=C(CCl)Nc1ccc2c(c1)OCCO2", "note": "[DKM 2-90, 2-Chloro-N-(2,3-dihydrobenzo[β][1,4]dioxin-6-yl)acetamide]", "values": [
      {"measurement": "ATP level", "setting": "[1]; 100 μM", "result": "Reductions"},
      {"measurement": "LPA (lysophosphatidic acid) level", "setting": "[1]; 100 μM", "result": "reductions"},
      {"measurement": "acetyl CoA level", "setting": "[1]; 100 μM", "result": "reduced"},
      {"measurement": "lactic acid level", "setting": "[1]; 100 μM", "result": "reduced"},
      {"measurement": "phosphoenolpyruvate level", "setting": "[1]; 100 μM", "result": "reduced"},
      {"measurement": "phosphoglycerate level", "setting": "[1]; 100 μM", "result": "reduced"}
    ]},
    {"smiles": "O=C(CCl)N(Cc1ccccc1)c1ccc2c(c1)OCCO2", "note": "[JNS 1-40, N-benzyl-2-chloro-N-(2,3-dihydrobenzo[b][1,4]dioxin-6-yl)acetamide]", "values": [
      {"measurement": "PP2A activity, wild-type PPP2R1A", "setting": "[2]; 100 μM", "result": "activated PP2A activity"},
      {"measurement": "overt toxicity or body weight loss", "setting": "[3]", "result": "did not cause any overt toxicity or body weight loss"}
    ]},
    {"smiles": "CC1=C(CO)C(=O)O[C@@H]([C@@H](C)[C@H]2CC[C@H]3[C@@H]4C[C@H]5O[C@]56[C@@H](O)C=CC(=O)[C@]6(C)[C@H]4CC[C@]23C)C1", "note": "[withaferin A, reference compound]", "values": [
      {"measurement": "cell proliferation", "setting": "MCF7 cells [4]", "result": "impairs"},
      {"measurement": "serum-free cell survival", "setting": "MCF7 cells [5]", "result": "impairs"},
      {"measurement": "cell proliferation", "setting": "HCC38 cells", "result": "impairs"},
      {"measurement": "PP2A activity, wild-type PPP2R1A", "setting": "[2]; 10 μM", "result": "activated PP2A activity"},
      {"measurement": "ATP level", "setting": "[1]; 10 μM", "result": "Reductions"},
      {"measurement": "LPA (lysophosphatidic acid) level", "setting": "[1]; 10 μM", "result": "reductions"},
      {"measurement": "acetyl CoA level", "setting": "[1]; 10 μM", "result": "reduced"},
      {"measurement": "lactic acid level", "setting": "[1]; 10 μM", "result": "reduced"},
      {"measurement": "phosphoenolpyruvate level", "setting": "[1]; 10 μM", "result": "reduced"},
      {"measurement": "phosphoglycerate level", "setting": "[1]; 10 μM", "result": "reduced"}
    ]}
  ]
}
